The subject of this assay is P388 leukemia ip, CD2F1 mice, survival T/C. As to the kind of experiment: NCI In Vivo Anticancer Drug Screen. Data for tumor model P388 Leukemia (intraperitoneal) in CD2F1 (CDF1) mice. The conditions noted are these: endpoint: median survival time, higher = longer survival. In short, it runs like this:
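Mice carrying the transplanted tumor received test compound or vehicle. Survival was recorded in each group, and the value is the treated-group measurement divided by that of the vehicle-treated control group.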

Setting [1] is: dose: 50.0 mg/kg/injection, schedule: Q01DX005 (ip), vehicle: Klucel (hydroxypropylcellulose) (HPC).
[2] abbreviates: dose: 100.0 mg/kg/injection, schedule: Q01DX005 (ip), vehicle: Klucel (hydroxypropylcellulose) (HPC).
Where [3] appears, read: dose: 200.0 mg/kg/injection, schedule: Q01DX005 (ip), vehicle: Klucel (hydroxypropylcellulose) (HPC).
The mark [4] stands for this setting: dose: 12.5 mg/kg/injection, schedule: Q01DX009 (ip), vehicle: Klucel (hydroxypropylcellulose) (HPC).
[5] abbreviates: dose: 25.0 mg/kg/injection, schedule: Q01DX009 (ip), vehicle: Klucel (hydroxypropylcellulose) (HPC).
Setting [6] is: dose: 50.0 mg/kg/injection, schedule: Q01DX009 (ip), vehicle: Klucel (hydroxypropylcellulose) (HPC).
[7] abbreviates: dose: 100.0 mg/kg/injection, schedule: Q01DX009 (ip), vehicle: Klucel (hydroxypropylcellulose) (HPC).
[8] abbreviates: dose: 50.0 mg/kg/injection, schedule: Q01DX005 (ip), vehicle: saline with Tween-80.
Setting [9] is: dose: 100.0 mg/kg/injection, schedule: Q01DX005 (ip), vehicle: saline with Tween-80.
The mark [10] stands for this setting: dose: 50.0 mg/kg/injection, schedule: Q01DX009 (ip), vehicle: saline.
Setting [11] is: dose: 100.0 mg/kg/injection, schedule: Q01DX009 (ip), vehicle: saline.
[12] abbreviates: dose: 200.0 mg/kg/injection, schedule: Q01DX009 (ip), vehicle: saline.
The mark [13] stands for this setting: dose: 100.0 mg/kg/injection, schedule: Q04DX003 (ip), vehicle: saline.
Where [14] appears, read: dose: 200.0 mg/kg/injection, schedule: Q04DX003 (ip), vehicle: saline.
Where [15] appears, read: dose: 400.0 mg/kg/injection, schedule: Q04DX003 (ip), vehicle: saline.
[16] abbreviates: dose: 60.0 mg/kg/injection, schedule: Q01DX005 (ip), vehicle: saline with Tween-80.
Where [17] appears, read: dose: 120.0 mg/kg/injection, schedule: Q01DX005 (ip), vehicle: saline with Tween-80.
[18] abbreviates: dose: 240.0 mg/kg/injection, schedule: Q01DX005 (ip), vehicle: saline with Tween-80.

Several values for one entry are separate records, joined by “and”; a condition that tells them apart may be missing. Equal values may be shown once. Inconclusive results and toxic doses are left out.

As for `CC(=O)c1c(-c2ccc(-c3c[nH]c(C)c3C(C)=O)cc2)c[nH]c1C`, the T/C (dose: 100.0 mg/kg/injection, schedule: Q04DX002 (ip), vehicle: saline with Tween-80) was 95 % of control; the T/C (dose: 200.0 mg/kg/injection, schedule: Q04DX002 (ip), vehicle: saline with Tween-80) is 91 % of control; the T/C (dose: 400.0 mg/kg/injection, schedule: Q04DX002 (ip), vehicle: saline with Tween-80) was 91 % of control.
Regarding `Nc1cc(C(F)(F)F)ccc1S`, the T/C (dose: 3.0 mg/kg/injection, schedule: Q01DX009 (ip), vehicle: DMSO) is 94 % of control; the T/C (dose: 6.0 mg/kg/injection, schedule: Q01DX009 (ip), vehicle: DMSO) is 103 % of control; the T/C (dose: 12.5 mg/kg/injection, schedule: Q01DX009 (ip), vehicle: DMSO) is 90 % of control.
`O=C(O)C(O)C(O)C(O)C(O)CO.[Mn]` (stereo not drawn): the T/C (dose: 50.0 mg/kg/injection, schedule: Q01DX009 (ip), vehicle: saline with Tween-80) was 113 % of control.
With `Nc1cc2nc3ccccc3oc-2cc1=O`, the T/C was 105 % of control under setting [1], 101 % of control under setting [2] and 97 % of control under setting [3].
For `O=C1CC2(CCCCC2)C(=O)N1c1cc([N+](=O)[O-])ccn1`, the T/C by setting is: under setting [4], 100 % of control; under setting [5], 101 % of control; under setting [6], 100 % of control and 92 % of control.
On to `Oc1cccc(/C=N/N=C/c2cccc(O)c2O)c1O`, for which the T/C reads like this: under setting [6], 96 % of control; under setting [7], 93 % of control.
Turning to `CCOC(=O)C1C2(C)NC(=O)C1(Cc1ccccc1)c1cc(C)c(C)cc1O2` (stereo not drawn), the T/C runs as follows: under setting [8], 99 % of control; under setting [9], 96 % of control; (dose: 200.0 mg/kg/injection, schedule: Q01DX005 (ip), vehicle: saline with Tween-80) 87 % of control.
As to `C/C(=N\NC(=O)c1ccccc1)C(=O)O`, the T/C reads like this: (dose: 100.0 mg/kg/injection, schedule: Q04DX002 (ip), vehicle: Klucel (hydroxypropylcellulose) (HPC)) 106 % of control; (dose: 200.0 mg/kg/injection, schedule: Q04DX002 (ip), vehicle: Klucel (hydroxypropylcellulose) (HPC)) 100 % of control; (dose: 400.0 mg/kg/injection, schedule: Q04DX002 (ip), vehicle: Klucel (hydroxypropylcellulose) (HPC)) 99 % of control.
Regarding `CCCCCCC1(C(=O)OCCN(CC)CC)CCCCC1`, the T/C by setting is: under setting [8], 101 % of control; under setting [9], 105 % of control.
Turning to `OC1CN(C(c2ccccc2)c2ccccc2)C1`, the T/C by setting is: under setting [6], 100 % of control; under setting [7], 108 % of control; (dose: 200.0 mg/kg/injection, schedule: Q01DX009 (ip), vehicle: Klucel (hydroxypropylcellulose) (HPC)) 104 % of control.
For `NC1=CC(=O)c2nc(-c3ccccc3N)ccc2C1=O`, the T/C is 109 % of control (dose: 100.0 mg/kg/injection, schedule: Q04DX003 (ip), vehicle: Klucel (hydroxypropylcellulose) (HPC)) and 105 % of control (dose: 200.0 mg/kg/injection, schedule: Q04DX003 (ip), vehicle: Klucel (hydroxypropylcellulose) (HPC)).
Consider `CC(C)(C)N1C(=O)NCS1(=O)=O`, for which the T/C is 100 % of control under setting [1], 100 % of control under setting [2] and 115 % of control under setting [3].
For the compound `CC(C)NCC(O)COc1ccccc1C1CC1` (stereo not drawn), the T/C under setting [10] is 106 % of control and the T/C under setting [11] is 104 % of control.
Turning to `CC(=O)NCCCCCCCNC(C)=O`, the T/C is 104 % of control (dose: 60.0 mg/kg/injection, schedule: Q01DX005 (ip), vehicle: saline); 107 % of control (dose: 120.0 mg/kg/injection, schedule: Q01DX005 (ip), vehicle: saline); 96 % of control (dose: 240.0 mg/kg/injection, schedule: Q01DX005 (ip), vehicle: saline).
With `NC=NCC(=O)O`, the T/C is 96 % of control under setting [10], 100 % of control under setting [11] and 99 % of control under setting [12].
In the case of `C=C1CC23CC4C5C6(C)CC(O)CC57C(C2C(O)C1C(O)C37)N4C6` (stereo not drawn), the T/C by setting is: under setting [4], 101 % of control; under setting [5], 106 % of control; under setting [6], 101 % of control.
`COc1ccc(C(=O)CC(C#N)c2ccc(OC)c(OC)c2)cc1OC` (stereo not drawn): the T/C by setting is: (dose: 100.0 mg/kg/injection, schedule: Q04DX003 (ip), vehicle: saline with Tween-80) 90 % of control; (dose: 200.0 mg/kg/injection, schedule: Q04DX003 (ip), vehicle: saline with Tween-80) 86 % of control; (dose: 400.0 mg/kg/injection, schedule: Q04DX003 (ip), vehicle: saline with Tween-80) 86 % of control.
Turning to `CC(=O)CC(=O)N1CCN(C(=O)CC(C)=O)CC1`, the T/C is 104 % of control under setting [13], 100 % of control under setting [14] and 100 % of control under setting [15].
For the compound `O=C1Nc2ccccc2/C1=N\N=c1/scc(-c2ccccc2)n1-c1ccccc1`, the T/C runs as follows: under setting [16], 101 % of control and 89 % of control; under setting [17], 100 % of control; under setting [18], 101 % of control and 97 % of control.
In the case of `CC1CCN(P(=O)(N(C)C)N(C)C)CC1`, the T/C under setting [10] is 98 % of control, the T/C under setting [11] is 96 % of control and the T/C under setting [12] is 88 % of control.
Turning to `CCCS(=O)(=O)/C=C/C(=O)c1ccc2ccccc2c1`, the T/C reads like this: under setting [13], 105 % of control; under setting [14], 108 % of control; under setting [15], 106 % of control.
As for `Clc1cccc2c(SCCCCCSc3c4ccccc4nc4c(Cl)cccc34)c3ccccc3nc12`, the T/C was 93 % of control (dose: 60.0 mg/kg/injection, schedule: Q01DX005 (ip), vehicle: Klucel (hydroxypropylcellulose) (HPC)); 93 % of control (dose: 120.0 mg/kg/injection, schedule: Q01DX005 (ip), vehicle: Klucel (hydroxypropylcellulose) (HPC)); 87 % of control (dose: 240.0 mg/kg/injection, schedule: Q01DX005 (ip), vehicle: Klucel (hydroxypropylcellulose) (HPC)).
`Cc1onc(-c2c(F)cccc2Cl)c1C(=O)Nc1cc2cc([N+](=O)[O-])ccc2oc1=O`: the T/C is 95 % of control under setting [16], 97 % of control under setting [17] and 92 % of control under setting [18].

Source of the values: PubChem BioAssay AID330 (DTP/NCI, 2004).
